Measured values as given in paper PMC9926234, “Iterative computational design and crystallographic screening identifies potent inhibitors targeting the Nsp3 macrodomain of SARS-CoV-2” (Proceedings of the National Academy of Sciences of the …, 2023).
Several values for one entry are separate records, joined by “and”; a condition that tells them apart may be missing. Equal values may be shown once. Read-outs that look alike come from different tables or passages of the source.

What was measured:
SARS-CoV-2 NSP3 Mac1 [1] = target: T1, SARS-CoV-2 NSP3 Mac1 (Severe acute respiratory syndrome coronavirus 2, UniProt P0DTD1); design: contains a conserved macrodomain enzyme (Mac1); Differential scanning fluorimetry of Mac1, maximum thermal upshift; conditions: maximum shift over tested concentrations; binder
SARS-CoV-2 NSP3 Mac1 [2] = target: T1, SARS-CoV-2 NSP3 Mac1; assay type: binding; design: contains a conserved macrodomain enzyme (Mac1); conditions: for Spearman est (compound concentration vs apparent Tm): DSF dose responsiveness, 1 µM nsp3 mac1, adj p given; for DSF max dTma: maximal thermal upshift
Outline: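 ΔTma values are thermal shifts relative to a co-located DMSO-only control, read with 5 µM Fluorescent Yellow dye. Each compound was tested in triplicate over seven concentrations (two-fold steps, top 1,000 or 100 μM). Spearman correlation of concentration versus ΔTma tested whether the shift was dose-responsive.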

SARS-CoV-2 NSP3 Mac1 [3] = target: T1, SARS-CoV-2 NSP3 Mac1; assay type: binding; conditions: for Refined occupancy: ligand occupancy after refinement (phenix.refine); for HIT*: true hit = binding in crystallographic soaking or the HTRF-based binding assay
SARS-CoV-2 NSP3 Mac1 [4] = target: T1, SARS-CoV-2 NSP3 Mac1; experiment: biochemical; assay type: binding; conditions: for IC50: read-out: IC50; for Ki: read-out: Ki***
TARG1 = target: T2, TARG1 (Homo sapiens, UniProt Q9Y530); experiment: adapted HTRF-based peptide displacement assay (off-target); assay type: binding; conditions: for binding / activity against TARG1: compound at 160 µM
T2 construct: Targ1_HTRF; HTRF assay; pET22b(+); His6, TEV; 1-153; made in house
T2 sequence (Q9Y530 with tags, fused parts or gaps): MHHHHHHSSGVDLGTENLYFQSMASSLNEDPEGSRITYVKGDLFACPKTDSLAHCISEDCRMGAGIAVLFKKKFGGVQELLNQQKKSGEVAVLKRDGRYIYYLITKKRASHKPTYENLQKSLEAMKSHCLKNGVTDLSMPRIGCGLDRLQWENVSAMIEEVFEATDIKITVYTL

MacroD2 = target: T3, MacroD2 (Homo sapiens, UniProt A1Z1Q3); experiment: as above; assay type: binding; conditions: for binding / activity against MacroD2: compound at 160 µM
T3 construct: MacroD2_HTRF; HTRF assay; pET22b(+); His6, TEV, Avi; made in house
T3 sequence (A1Z1Q3 with tags, fused parts or gaps): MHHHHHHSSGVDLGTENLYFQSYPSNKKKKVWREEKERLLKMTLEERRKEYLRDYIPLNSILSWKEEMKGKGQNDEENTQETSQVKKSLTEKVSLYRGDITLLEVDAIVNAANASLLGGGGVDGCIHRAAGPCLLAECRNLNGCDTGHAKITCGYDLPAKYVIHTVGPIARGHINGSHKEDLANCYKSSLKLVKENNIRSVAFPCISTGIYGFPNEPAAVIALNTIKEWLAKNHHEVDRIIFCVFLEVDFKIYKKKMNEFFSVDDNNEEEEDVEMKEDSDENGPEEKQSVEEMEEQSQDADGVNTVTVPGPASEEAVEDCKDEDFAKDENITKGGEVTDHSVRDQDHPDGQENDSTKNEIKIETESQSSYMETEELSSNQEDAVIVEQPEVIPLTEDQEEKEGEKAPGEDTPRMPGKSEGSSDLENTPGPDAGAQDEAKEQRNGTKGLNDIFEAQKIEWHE

SARS-CoV-2 NSP3 Mac1 [5] = experiment: Overall hit call (binding in crystallographic soaking or the HTRF-based binding assay)
From the text: Supplement pnas.2212931120.sd01.xlsx, sheet "Compound Summary" | column: HIT*

[6] = system: P-glycoprotein (human MDR1); experiment: in vitro; conditions: dog, MDCK-MDR1, pH 7.4, permeability, MDR1-MDCKII
Experimental: Permeability of compounds was assessed using canine MDR1 knockout and human MDR1 knockin MDCKII cells (MDR1-MDCKII) (Sigma-Aldrich, MTOX1303) in confluent monolayers expressing P-glycoprotein (P-gp) at Enamine biological services Bienta LTD (Kyiv, Ukraine).
Canine MDR1 knockout, human MDR1 knockin MDCKII cell (MDR1-MDCKII) (Sigma-Aldrich,
MTOX1303) suspension (400 μl) was added to each well of high throughput screening multiwell
insert system plates. Test compounds were prepared as 20 mM DMSO stocks. The test compound
(300 µl) was dissolved in transport buffer (9.5 g/l Hanks’ balanced salt solution and 0.35 g/l NaHCO3
wells whereas 1000 µl of transport buffer was added to transport analysis plate wells in order to
determine apical (A) to basolateral (B) transport. Basolateral to apical transport was measured by
adding 1000 µl of the test compound solution into the transport analysis plate wells whereas 300
µl of buffer was used to fill the filter plate wells.
were taken from the donor and receiver compartments for LC-MS/MS analysis. Samples were
mixed with acetonitrile followed by protein sedimentation by centrifugation at 1000 rpm for 10 min.
HPLC coupled with tandem mass spectroscopy was performed using the Shimadzu Prominence
HPLC system coupled with the API 5000 (PE Sciex) spectrometer. Both the positive and negative
ion modes of the TurboIonSpray ion source were used. The apparent permeability (Papp) was
computed using the equation 1, where VA is the volume of transport buffer in acceptor wel, Area is
the surface area of the insert, Time is the assay time, [drug]acc is the peak area of test compound
in acceptor well, and [drug]initial,d is the initial amount of the test compound in a donor well.

[7] = PanDDA event map, 1 minus background density correction, crystal soaking of Mac1
[8] = HTRF ADPr-peptide displacement from SARS-CoV-2 Mac1
[9] = Ki estimation from HTRF-derived IC50, Cheng-Prusoff, peptide 400nM, Kd 2.68µM
[10] = ligand modeled from this dataset, compound concentration 100 mM, Echo dispense volume 40 or 80 nl
[11] = ligand modeled from this dataset, compound concentration 100 mM
[12] = PanDDA 1-BDC value of the event, crystal soak, compound concentration 100 mM, per dataset
[13] = crystal soak, compound concentration 100 mM, per dataset

Structure (SMILES)	DSF max dTma (SARS-CoV-2 NSP3 Mac1 [1])	Spearman est (compound concentration vs apparent Tm) (SARS-CoV-2 NSP3 Mac1 [2])	DSF max dTma (SARS-CoV-2 NSP3 Mac1 [2])	1-BDC (SARS-CoV-2 NSP3 Mac1 [3]; [7])	Refined occupancy (SARS-CoV-2 NSP3 Mac1 [3]; crystal soaking of Mac1)	HIT* (SARS-CoV-2 NSP3 Mac1 [3])	IC50 (SARS-CoV-2 NSP3 Mac1 [4]; [8])	IC50 (SARS-CoV-2 NSP3 Mac1 [4]; HTRF)	Ki (SARS-CoV-2 NSP3 Mac1 [4]; [9])	1-BDC (PanDDA) (SARS-CoV-2 NSP3 Mac1 [3]; [7])	Modeled? (SARS-CoV-2 NSP3 Mac1 [3]; [11])	also measured
Cc1noc(CC2CCCN(c3ncnc4[nH]c5cc(F)ccc5c34)C2)n1 (stereo not shown) [LL1_0005]	0.6 °C	0.01	0.6 ˚C	0.11	22	Y	–	–	–	–	–	–
O=C(O)CC1CN(c2ncnc3[nH]c4cc(F)ccc4c23)CCO1 (stereo not shown) [LL1_0014]	–	0.91	3.21 ˚C	0.11	22	Y	16 to 29 µM and 16.4 to 28.7 µM	16.4 µM and 28.7 µM	14.3 µM and 25 µM	–	–	displacement of the ADPr-conjugated peptide (off-target activity) (TARG1; compound at 1 mM): 50%; Modeled? (SARS-CoV-2 NSP3 Mac1 [3]; [10]): TRUE; displacement of the ADPr-conjugated peptide (off-target activity) (MacroD2; compound at 1 mM): 50%
O=c1[nH]nc(C2CCCN(c3ncnc4[nH]c5cc(F)ccc5c34)C2)o1 (stereo not shown) [LL1_0017]	0.5 °C	0.18	0.5 ˚C	–	18	Y	–	–	–	0.09	TRUE	–
O=C(O)CCC1CCCN(c2ncnc3[nH]c4cc(F)ccc4c23)C1 (stereo not shown) [LL1_0018]	2.71 °C	0.96	2.71 ˚C	–	20	Y	–	25.8 µM	22.4 µM	0.1	TRUE	–
O=C(O)C1(F)CN(c2cc(Nc3ccccc3)ncn2)CC12CCC2 (stereo not shown) [LL1_0025]	1.36 °C	0.71	1.36 ˚C	–	28	Y	–	121 µM	106 µM	0.14	TRUE	1-BDC (SARS-CoV-2 NSP3 Mac1 [3]; [12]): 0.12; PanDDA hit? (SARS-CoV-2 NSP3 Mac1 [3]; [13]): TRUE
CS(=O)(=O)C1CCCN(c2ncnc3[nH]c4cc(F)ccc4c23)C1 (stereo not shown) [LL1_0027]	0.8 °C	0.41	0.8 ˚C	0.06	12	Y	–	–	–	–	–	1-BDC (SARS-CoV-2 NSP3 Mac1 [3]; [12]): 0.09; PanDDA hit? (SARS-CoV-2 NSP3 Mac1 [3]; [13]): TRUE; Modeled? (SARS-CoV-2 NSP3 Mac1 [3]; [10]): TRUE
Fc1ccc2c(c1)[nH]c1ncnc(N3CCOC(c4nnn[nH]4)C3)c12 (stereo not shown) [LL114_0008]	–	–	–	–	50	–	17 µM	–	–	0.25	–	IC50 (SARS-CoV-2 NSP3 Mac1 [4]; HTRF ADPr-conjugated peptide displacement): 17.2 µM; Ki (SARS-CoV-2 NSP3 Mac1 [4]): 15 µM; HIT* (SARS-CoV-2 NSP3 Mac1 [5]): Y; displacement of the ADPr-conjugated peptide (off-target activity) (TARG1; compound at 50 µM): showed measurable peptide displacement; 1-BDC (SARS-CoV-2 NSP3 Mac1 [3]; PanDDA event map, crystal soak, Compound_concentration 100 mM, Echo_dispense_volume 40 nl): 0.25; PanDDA hit? (SARS-CoV-2 NSP3 Mac1 [3]; crystal soak, Compound_concentration 100 mM, Echo_dispense_volume 40 nl, PanDDA run (background map) dmso_34, nohits_35 or nohits_62): TRUE; Modeled? (SARS-CoV-2 NSP3 Mac1 [3]; ligand modeled, crystal soak, Compound_concentration 100 mM, Echo_dispense_volume 40 nl): TRUE; displacement of the ADPr-conjugated peptide (off-target activity) (MacroD2; compound at 50 µM): showed measurable peptide displacement
O=C1CCCN1Nc1ncnc2[nH]c3cc(F)ccc3c12 [LRH-0003]	–	–	–	–	–	–	–	–	–	–	–	binding / activity against TARG1 (TARG1): neither neutral compounds LRH-0003 and LRH-0008 had measurable binding; binding / activity against MacroD2 (MacroD2): neither neutral compounds LRH-0003 and LRH-0008 had measurable binding; Papp ([6]; apical to basal): 13.8 ×10⁻⁶ cm/s; Papp ([6]; basal to apical): 24.3 ×10⁻⁶ cm/s
O=C1CCCC1Nc1ncnc2[nH]c3cc(F)ccc3c12 (stereo not shown) [LRH-0008]	–	–	–	–	–	–	13.4 µM	–	–	–	–	Ki (SARS-CoV-2 NSP3 Mac1 [4]): 11.7 µM; HIT* (SARS-CoV-2 NSP3 Mac1 [5]): Y; binding / activity against TARG1 (TARG1): neither neutral compounds LRH-0003 and LRH-0008 had measurable binding; binding / activity against MacroD2 (MacroD2): neither neutral compounds LRH-0003 and LRH-0008 had measurable binding
